How the values were obtained:
[1] = target: T1, α2AAR (α2A-adrenergic receptor) (Homo sapiens, UniProt P08913); assay: α2AAR FLIPR assay (agonist activity); type: cell-based; settings: FLIPR, α2AAR cell line hosted in HEK293 cells; read-out: α2A agonist activity (EC50)
T1 construct: expressed in transfected cells; host or cells: HEK293
T1 sequence (P08913 1-465): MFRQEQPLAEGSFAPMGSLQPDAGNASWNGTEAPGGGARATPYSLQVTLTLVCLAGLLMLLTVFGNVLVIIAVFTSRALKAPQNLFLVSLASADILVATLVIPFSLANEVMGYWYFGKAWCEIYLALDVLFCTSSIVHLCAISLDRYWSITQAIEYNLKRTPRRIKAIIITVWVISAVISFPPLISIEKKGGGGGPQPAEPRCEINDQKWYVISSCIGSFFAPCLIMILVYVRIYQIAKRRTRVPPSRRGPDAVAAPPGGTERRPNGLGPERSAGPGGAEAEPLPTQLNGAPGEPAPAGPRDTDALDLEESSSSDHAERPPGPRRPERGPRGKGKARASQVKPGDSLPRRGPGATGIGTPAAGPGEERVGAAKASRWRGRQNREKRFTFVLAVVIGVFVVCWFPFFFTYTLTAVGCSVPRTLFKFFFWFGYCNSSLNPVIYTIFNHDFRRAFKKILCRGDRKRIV
Experimental: This experimental protocol involved cell seeding and a FLIPR assay using the α2AAR (α2A-adrenergic receptor) cell line hosted in HEK293 cells. […] On Day 1, the cell seeding process started with the removal of the culture medium, followed by rinsing the cells with DPBS (21-031-CVC, Corning). […] The cells were detached, resuspended in growth media, and centrifuged at room temperature at 1000 rpm for 5 minutes. After discarding the supernatant, the cell pellet was resuspended in growth media to a concentration of 10× 10^5 cells per mL. This suspension was added to 384-well plates (19-Jul-38, Greiner) at 20 μL per well and incubated overnight at 37° C. in 5% CO2.
A 250 mM Probenecid solution was prepared in this buffer. The Fluo-4 Direct™ Loading Buffer was made by dissolving Fluo-4 Direct™ crystals (F10471, Invitrogen) in the FLIPR Assay Buffer and adding Probenecid. The buffer was then vortexed and allowed to stand for over 5 minutes, shielded from light. For the FLIPR procedure, testing compounds for agonist activite were serially diluted and transferred to a 384-well compound plate (25-Jan-39, Greiner). The cell plate was then treated with 2× Fluo-4 Direct™ loading buffer and incubated for 50 minutes at 37° C. in a 5% CO2 atmosphere, followed by 10 minutes at room temperature. Subsequently, the FLIPR assay buffer was added to the compound plate, which is then centrifuged.
The cell plate was analyzed in the FLIPR Tetra+ System for fluorescence signals. For the agonist test, reference compounds were added to the cell plates, and fluorescence was measured. The “Max-Min” calculation began from Read 1 to the maximum allowed. The data were analyzed using Prism software to calculate activation percentage for agonists and inhibition percentage for antagonists. The results were then fitted using specific models to determine EC50 for agonists.
The experimental protocol utilized various reagents and apparatus, including Penicillin/Streptomycin (100×) (SV30010, Hyclone), Poly-L-lysine hydrobromide (P1399, Sigma), and different types of 384-well plates such as the 384-Well PP 2.0 Microplate (PP-0200, LABCYTE) and 384 well Low Dead Volume Microplate (LP-0200, LABCYTE). The use of specific reference compounds like UK14304 was also integral to the assay.

α2AAR = target: T2, α2AAR (Homo sapiens, UniProt P08913); assay: α2AAR binding assay ([3H]-RX 821002 radioligand); settings: [3H]-RX 821002 0.5 nM, HEK293 membranes; read-out: α2A affinity (Ki)
T2 construct: host or cells: HEK293 (membranes)
T2 sequence (P08913 1-465): T1 sequence (P08913 1-465)
Experimental: The α2AR Binding Assay was conducted using a stable HEK293 cell line, specifically constructed by WuXi AppTec for targeting α2AAR. […] Both the assay and wash buffers consist of 50 mM Tris-HCl at a pH of 7.4 (Tris base, Sigma, T1503-1 KG).
The procedure initiated with the preparation of test compounds and a reference compound, yohimbine (Sigma, Y3125), through an 8-point 4-fold serial dilution, transferring 1 μL of each to the assay plate. […] After scaling, the plates were agitated at room temperature for one hour. Subsequently, the Unifilter-96 GF/C filter plates were pre-soaked with 0.3% PEI (Sigma, P3143) for at least half an hour. The reaction mixtures were then filtered and washed four times with cold wash buffer using a Perkin Elmer Cell harvester. Post-filtration, the plates were dried at 50° C. for one hour. […] The top of the plates was then sealed with TopSeal-A sealing film. The trapped 3H was quantified using a Perkin Elmer MicroBeta2 Reader. […] Finally, the data were analyzed with Prism 5.0 software, employing the “log (inhibitor) vs. response-Variable slope” model for data fitting. This comprehensive process ensured precise assessment of the binding affinity of compounds to the α2AAR.

Row | SMILES | EC50 [1] [nM] | Ki (α2AAR) [nM]
1 | CONC(=O)c1cccc(C(c2c[nH]cn2)c2cccc(C)c2C)c1 (stereo not shown) [compound 1] | 50 to 250 | 50 to 250
2 | CC(=O)Nc1cccc(C(c2c[nH]cn2)c2cccc(C)c2C)c1 (stereo not shown) [compound 30] | 50 to 250 | 50 to 250
3 | Cc1cccc(C(c2cccc(NCCC#N)c2)c2c[nH]cn2)c1C (stereo not shown) [compound 32] | 50 to 250 | 50 to 250
4 | COCCOCCOCC(c1c[nH]cn1)c1cccc(C)c1C (stereo not shown) [compound 37] | 50 to 250 | –
5 | Cc1cccc(C(c2cccc(N)c2)c2c[nH]cn2)c1C (stereo not shown) [compound 39] | 50 to 250 | –
6 | CC(=O)Nc1cccc(C(c2c[nH]cn2)c2cccc(C)c2C)c1F (stereo not shown) [compound 50] | 50 to 250 | 50 to 250
7 | Cc1cccc(C(c2c[nH]cn2)c2cccc(NS(C)(=O)=O)c2F)c1C (stereo not shown) [compound 51] | 50 to 250 | 10 to 50
8 | CONC(=O)c1cccc(C(c2c[nH]cn2)c2cccc(C(F)(F)F)c2C)c1 (stereo not shown) [compound 52] | 250 to 1000 | –
9 | Cc1cccc(C(c2cccc(Nc3ccccn3)c2)c2c[nH]cn2)c1C (stereo not shown) [compound 59] | 50 to 250 | –
10 | CONC(=O)c1cccc(CC(c2c[nH]cn2)c2cccc(C)c2C)c1 (stereo not shown) [compound 61] | 10 to 50 | 10 to 50
11 | CSCCC(=O)Nc1cccc(C(c2c[nH]cn2)c2cccc(C)c2C)c1 (stereo not shown) [compound 63] | 10 to 50 | 10 to 50
12 | Cc1cccc(C(c2cccc(NC(=O)CCN3CCOCC3)c2)c2c[nH]cn2)c1C (stereo not shown) [compound 70] | 10 to 50 | 10 to 50
13 | Cc1cccc(C(Cc2cccc(NS(C)(=O)=O)c2)c2c[nH]cn2)c1C (stereo not shown) [compound 76] | 50 to 250 | < 10
14 | Cc1cccc(C(c2cccc(NC(=O)CC3CCNC3)c2)c2c[nH]cn2)c1C (stereo not shown) [compound 79] | 50 to 250 | 10 to 50
15 | Cc1cccc(C(c2cccc(C(=O)CCC#N)c2)c2c[nH]cn2)c1C (stereo not shown) [compound 85] | 50 to 250 | 10 to 50
16 | Cc1cccc(C(c2cccc(NS(=O)(=O)CC3CCOC3)c2)c2c[nH]cn2)c1C (stereo not shown) [compound 86] | 10 to 50 | < 10
17 | Cc1cccc(C(c2cccc(NC(=O)CCCN3CCOCC3)c2)c2c[nH]cn2)c1C (stereo not shown) [compound 88] | 50 to 250 | 10 to 50
18 | Cc1cccc(C(c2cccc(NC(=O)CCN3CCCC3)c2)c2c[nH]cn2)c1C (stereo not shown) [compound 89] | 50 to 250 | 10 to 50
19 | Cc1cccc(C(c2c[nH]cn2)c2cccc(S(N)(=O)=O)c2O)c1C (stereo not shown) [compound 150] | 50 to 250 | –
20 | Cc1cccc(C(CN2CCC(NS(C)(=O)=O)CC2)c2c[nH]cn2)c1C (stereo not shown) [compound 168] | 50 to 250 | –
21 | Cc1cccc(C(c2cccc(NC(=O)C3C4CC5CC(C4)CC3C5)c2)c2c[nH]cn2)c1C (stereo not shown) [compound 170] | 50 to 250 | –
22 | Cc1cccc(C(c2cccc(NS(=O)(=O)C[C@@H]3CCCO3)c2)c2c[nH]cn2)c1C (stereo partly shown) [compound 172] | 10 to 50 | –
23 | Cc1cccc(C(c2cccc(NS(=O)(=O)CC3CCCCO3)c2)c2c[nH]cn2)c1C (stereo not shown) [compound 173] | 10 to 50 | –
24 | Cc1cccc(C(c2cccc(NC(=O)CC3CCCCC3)c2)c2c[nH]cn2)c1C (stereo not shown) [compound 178] | 10 to 50 | –
25 | Cc1cccc(C(c2cccc(NC3(C)COC3)c2)c2c[nH]cn2)c1C (stereo not shown) [compound 185] | 50 to 250 | –
26 | Cc1cscc1C(c1cccc(NS(C)(=O)=O)c1)c1c[nH]cn1 (stereo not shown) [compound 403] | 50 to 250 | –
27 | CONC(=O)c1ccc2ccccc2c1Nc1ccncc1 [compound 601] | 50 to 250 | –
28 | COCCOCCOCCOCCOCCc1ccc2ccccc2c1Nc1ccncc1 [compound 602] | 50 to 250 | –

Continued, values first:

Row | EC50 [1] [nM] | Ki (α2AAR) [nM] | SMILES
29 | < 10 | 10 to 50 | Cc1cccc(C(c2cccc(C(=O)NC3CCOCC3)c2)c2c[nH]cn2)c1C (racemic) [compound 121]
30 | < 10 | < 10 | Cc1cccc(C(Cc2ccc(NS(C)(=O)=O)cc2)c2c[nH]cn2)c1C (racemic) [compound 136]
31 | < 10 | < 10 | Cc1cccc(C(Cc2ccc(C(N)=O)c(F)c2)c2c[nH]cn2)c1C (racemic) [compound 156]
32 | 10 to 50 | 10 to 50 | Cc1cccc(C(c2cccc(NC(=O)CC#N)c2)c2c[nH]cn2)c1C (single isomer, unassigned) [10-B]
33 | 10 to 50 | 10 to 50 | CNC(=O)NCCOCCOCC(c1c[nH]cn1)c1cccc(C)c1C (single isomer, unassigned) [17-B]
34 | 10 to 50 | 10 to 50 | Cc1cccc(C(c2cccc(NC(=O)CCC#N)c2)c2c[nH]cn2)c1C (single isomer, unassigned) [43-B]
35 | 10 to 50 | < 10 | Cc1cccc(C(c2cccc(NS(C)(=O)=O)c2)c2c[nH]cn2)c1C (single isomer, unassigned) [44-B]
36 | < 10 | < 10 | Cc1cccc(C(c2cccc(C(=O)NCC3CCOCC3)c2)c2c[nH]cn2)c1C (single isomer, unassigned) [98-B]
37 | 10 to 50 | < 10 | Cc1cccc(C(Cc2cccc(NS(=O)(=O)CC3CCOCC3)c2)c2c[nH]cn2)c1C (single isomer, unassigned) [112-B]
38 | 10 to 50 | 10 to 50 | Cc1cccc(C(Cc2ccc(C(C)C(=O)O)cc2)c2c[nH]cn2)c1C (single isomer, unassigned) [174-B]
39 | 10 to 50 | 10 to 50 | Cc1cccc(C(Cc2ccc(C(C)C(=O)O)cc2)c2c[nH]cn2)c1C (single isomer, unassigned) [174-D]
40 | 10 to 50 | 50 to 250 | Cc1cccc(C(Cc2ccc(C(=O)O)cc2)c2c[nH]cn2)c1C (single isomer, unassigned) [175-B]
41 | 10 to 50 | 50 to 250 | Cc1cccc(C(COCCOCCNC(=O)Nc2ccncn2)c2c[nH]cn2)c1C (stereo not shown) [compound 20]
42 | 10 to 50 | 10 to 50 | Cc1cccc(C(c2cccc(OCCNS(C)(=O)=O)c2)c2c[nH]cn2)c1C (stereo not shown) [compound 22]
43 | 10 to 50 | 50 to 250 | Cc1cccc(C(COCCOCCOCCNS(C)(=O)=O)c2c[nH]cn2)c1C (stereo not shown) [compound 26]
44 | 10 to 50 | < 10 | Cc1cccc(C(c2c[nH]cn2)c2cccc(C(N)=O)c2F)c1C (stereo not shown) [compound 27]
45 | 10 to 50 | 10 to 50 | CNS(=O)(=O)c1cccc(C(c2c[nH]cn2)c2cccc(C)c2C)c1 (stereo not shown) [compound 28]
46 | 10 to 50 | < 10 | Cc1cccc(C(c2cccc(NS(C)(=O)=O)c2)c2c[nH]cn2)c1C (stereo not shown) [compound 29]
47 | 10 to 50 | 50 to 250 | Cc1cccc(C(c2ccnc(C(N)=O)c2)c2c[nH]cn2)c1C (stereo not shown) [compound 31]
48 | 10 to 50 | – | Cc1cccc(C(c2c[nH]cn2)c2cccc(C(N)=O)c2Cl)c1C (stereo not shown) [compound 38]
49 | 10 to 50 | 10 to 50 | Cc1cccc(C(c2cccc(NC(=O)CCC#N)c2)c2c[nH]cn2)c1C (stereo not shown) [compound 43]
50 | 10 to 50 | 10 to 50 | CONC(=O)c1cccc(C(c2c[nH]cn2)c2cccc(C)c2C)c1F (stereo not shown) [compound 54]
